Measurements published in EP1432683B9 (Recordati Ireland Limited, priority 2001, dated 2003).
Counter-ions that a name gives are not always drawn.

Tests used:
[1] = oral administration; cited from earlier work
[2] = Solubility of crude forms compared with other crude forms; format: physicochemical

COC(=O)C1=C(C)NC(C)=C(C(=O)OC(C)(C)CN(C)CCC(c2ccccc2)c2ccccc2)C1c1cccc([N+](=O)[O-])c1 (centres unmarked) [Lercanidipine, methyl 1,1,N-trimethyl-N-(3,3-diphenylpropyl)-2-aminoethyl 1,4-dihyaro-2,6-dimethyl-4-(3-nitrophenyl)pyridine-3,5-dicarboxylate]
peak plasma levels occurring (time following dosing) [1]: 2 to 3 h

COC(=O)C1=C(C)NC(C)=C(C(=O)OC(C)(C)CN(C)CCC(c2ccccc2)c2ccccc2)C1c1cccc([N+](=O)[O-])c1 (centres unmarked) [Form (A), lercanidipine hydrochloride]
solubility compared to other crude forms previously reported [2]: higher solubility
